How the values were obtained:
GPC3 = GPC3 (Homo sapiens, UniProt P51654); assay: Protein binding assay with 32P-labeled aptamers (Zorbax resin, filter plate, phosphorimager); settings: FIG. 1
Protocol: To select an aptamer which is the most specific to GPC3 from 7 aptamer libraries expected to be specific to GPC3 [2428-12-09, 2428-12-10, 2428-12-11, 2424-30-01, 2424-30-05, 2424-30-06, 2424-30-07, all 40-mer], a binding assay was performed through […] labeling. In detail, to […] RI-labeled and unlabeled oligonucleotide region at the oligonucleotide 3′-end of each candidate aptamer sequence, 0.25 μL of α-32P, 0.25 μL of DNA nucleotidylexotransferase (terminal transferase), 1 μL of 10×NEB buffer (New England Biolabs, USA), 1 μL of CoCl2, 7.5 μL of a template (aptamer sequence) (total 10 μL) were added to a plate, which was then sealed with foil, and then incubated at 37° C. for 30 min (enzyme incubation). After incubation at 70° C. for 10 min (enzyme incubation), each of the incubated samples was diluted with 30 μL of distilled water. The lower part of the Microspin G-50 column was removed and a tube was put thereon. After spinning at 800 rcf for 1 min, the tube was removed. The sample was put in a resin, followed by spinning at room temperature and 800 rcf for 2 min.
The aptamers, from which RI-labeled and unlabeled oligonucleotide ends were removed, were diluted with 100 μL of 1×SB18T0.05 to 20,000 cpm. The aptamers were heated at 95° C. for 5 min, and subsequently, cooled at 37° C. for 15 min. 100 nM of protein (GPC3) was subjected to 4.64-fold serial dilution, and each 30 μL of a total of 8 points was added to each well. 200 μL of 1×SB18T0.05 was added to the aptamers, of which heating and cooling were completed, and then 30 μL thereof was added to each well for a total volume of 60 μL. 2 μL of the aptamer was dropped as an input control on a nylon filter, followed by incubation at 37° C. for 30 min. During incubation, 30 μL of 1×SB18T0.05 was added to a filter plate in advance. After incubation, 5.5 μL of Zorbax resin was added, and allowed to react at 1400 rpm for 1 min. […] The screen was analyzed, and the binding degree according to each protein concentration was derived (percentage bound value).

[1] = system: squamous cell carcinoma cells (A431); assay: Cell cycle analysis (propidium iodide, FACS); type: cell-based; settings: 4 hr treatment, FIG. 27
Protocol: (§1) To analyze the effects of combi 4 and combi 5 bound with three or five gemcitabines on the cell cycle of hepatoma cells, cell cycle analysis was performed. In detail, Hep3B, HepG2, and A431 cells were seeded in a 6-well plate at a density of 1×10^6/ml, and cultured using a DMEM medium containing 10% FBS and 1% antibiotics (penicillin/streptomycin) under conditions of 5% CO2 and 37° C., respectively. Next day, 100 μM of the modified aptamer stock was mixed with 5×SB18 buffer to prepare the aptamer at a concentration of 80 μM, and heated at 95° C. for 5 min, and then cooled at room temperature for 15 min or more. The medium was removed from the cultured cells, and replaced by a serum-free medium, and cultured under conditions of 37° C. and 5% CO2 for 1 hr. The serum-free medium was removed, and then the cells were washed with 2 ml of 1×PBS. 2 ml of KRPH buffer was added, and cultured under conditions of 37° C. and 5% CO2 for 1 hr. The aptamer was added, and cultured under conditions of 37° C. and 5% CO2 for 4 hr. The KRPH buffer was removed, and 2 ml of 1×PBS was added thereto to perform washing, and then PBS was removed. 2 ml of 1×PBS was added, and cells were scraped using a scraper, and collected in FACs tubes, followed by centrifugation at 4° C. and 2000 rpm for 4 minutes. 1/500-fold diluted RNAase A and propidium iodide diluted with PBS at a concentration of 50 μg/ml were added to the FACs tubes at a volume of 500 μL, followed by pipetting. Incubation was performed at room temperature for 30 min while blocking the light, and then cell cycle was measured.

[2] = system: hepatoma cells (Hep3B, HepG2); assay: Cell cycle analysis (propidium iodide, FACS); type: cell-based; settings: 4 hr treatment, FIGS. 25 and 26
Protocol: as §1

[3] = system: GPC3-expressing hepatoma cells; assay: Cell-killing effect (CCK-8) of gemcitabine-bound combi aptamers; type: cell-based; settings: FIG. 23 and FIG. 24
Protocol: In detail, Huh-7 cells (ATCC, Rockville, MD, USA) were seeded in a 96-well plate at a density of 1×10^4/mL, and cultured using a DMEM (Gibco, Grand Island, NY, USA) medium containing 10% FBS (Gibco, Grand Island, NY, USA) and 1% antibiotics (penicillin/streptomycin) under conditions of 5% CO2 and 37° C. Next day, the aptamer stock (100 μM) was mixed with 5×SB18 buffer to prepare the stock at a concentration of 80 μM, and heated at 95° C. for 5 min, and then cooled at room temperature for 15 min or more. The medium was removed from the cultured cells, and 100 μL of a serum-free medium was added thereto, and cultured under conditions of 37° C. and 5% CO2 for 1 hr. The serum-free medium was removed, and then the cells were washed with 100 μL of 1×PBS. 100 μL of KRPH buffer was added, and cultured under conditions of 37° C. and 5% CO2 for 1 hr. The aptamer was diluted with KRPH buffer to 2-fold of the desired concentration, and added to a 96-well plate at 1× concentration, and cultured under conditions of 37° C. and 5% CO2 for 4 hr. After treatment with the aptamer, the KRPH buffer was removed, and then 100 μL of culture medium was added and cultured under conditions of 37° C. and 5% CO2 for […]. 6 days later, 10 μL of a kit solution of CCK-8 (Cell Counting Kit-8) was added to each well, and then cultured under conditions of 37° C. and 5% CO2 for 3 hr. Cell death levels were examined at […] using a microplate reader.

Sequence of GPC3 (P51654 25-554): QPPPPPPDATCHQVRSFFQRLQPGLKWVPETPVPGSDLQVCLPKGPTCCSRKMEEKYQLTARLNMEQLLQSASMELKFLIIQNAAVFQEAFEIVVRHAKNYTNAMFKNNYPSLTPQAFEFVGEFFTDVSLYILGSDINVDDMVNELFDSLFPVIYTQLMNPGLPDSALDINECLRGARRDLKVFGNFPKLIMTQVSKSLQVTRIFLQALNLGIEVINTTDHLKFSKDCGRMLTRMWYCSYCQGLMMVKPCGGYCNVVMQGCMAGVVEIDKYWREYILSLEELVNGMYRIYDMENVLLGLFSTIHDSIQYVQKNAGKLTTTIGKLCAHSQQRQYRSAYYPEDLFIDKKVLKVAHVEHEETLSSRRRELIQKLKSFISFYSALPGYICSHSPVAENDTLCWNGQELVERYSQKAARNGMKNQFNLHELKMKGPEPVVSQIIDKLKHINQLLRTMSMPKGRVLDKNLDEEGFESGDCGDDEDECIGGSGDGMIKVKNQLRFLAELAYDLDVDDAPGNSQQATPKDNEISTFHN

Compound | binding ability among the candidates (GPC3; 7 candidate 40-mer aptamers) | maximum binding capacity (Bmax) (GPC3) | Kd (GPC3; read-out: dissociation constant (Kd)) | cell cycle arrest [1] | cell cycle arrest [2] | concentration from which a cell-killing effect is shown [3]
12-10: SEQ ID NO: 1, 40-mer GPC3-specific aptamer with BzdU bases (GGGAAGnGAAnGCGnnGAAnnAnGnCCCnnCAGnCAnCAC; BzdU bases, as printed in the source, key not given here) | most excellent binding ability | 0.79 | 1.5 nM | – | – | –
Nc1ccn([C@@H]2O[C@H](CO)[C@@H](O)C2(F)F)c(=O)n1 [gemcitabine, 2′,2′-difluoro 2′-deoxycytidine, reference compound] | – | – | – | no cell cycle arrest | – | –
Combi 4 G(5) (DNA GNGAANGCGNNGAANNANGYSSSNNCAGNCANSAS; 5 gemcitabines, 2'-OMe, 2'-F, BzdU, 3' idT; Combi 4 G(5); (1)..(1) G is 2-O-Methoxy-DNA.; (2)..(2) n is BzdU.; (3)..(3) G is 2-O-Methoxy-DNA.; (4)..(4) A is 2-Fluorine-DNA.; (5)..(5) A is 2-Fluorine-DNA.; (6)..(6) n is BzdU.; (10)..(10) n is BzdU.; (11)..(11) n is BzdU.; (12)..(12) G is 2-Fluorine-DNA.; (13)..(13) A is 2-Fluorine-DNA.; (14)..(14) A is 2-Fluorine-DNA.; (15)..(15) n is BzdU.; (16)..(16) n is BzdU.; (17)..(17) A is 2-Fluorine-) | – | – | – | no cell cycle arrest | arrested hepatoma cells at the G1/S phase | 100 nM
Combi 5 G(5) (DNA GNGAANGCGNNGAANNANWYSSSNNCAGNCANSAS; 5 gemcitabines, 2'-OMe, BzdU; Combi 5 G(5); (1)..(1) G is 2-O-Methoxy-DNA.; (2)..(2) n is BzdU.; (3)..(3) G is 2-O-Methoxy-DNA.; (4)..(4) A is 2-Fluorine-DNA.; (5)..(5) A is 2-Fluorine-DNA.; (6)..(6) n is BzdU.; (10)..(10) n is BzdU.; (11)..(11) n is BzdU.; (12)..(12) G is 2-Fluorine-DNA.; (13)..(13) A is 2-Fluorine-DNA.; (14)..(14) A is 2-O-Methoxy-DNA.; (15)..(15) n is BzdU.; (16)..(16) n is BzdU.; (17)..(17) A is 2-O-Methox) | – | – | – | no cell cycle arrest | arrested hepatoma cells at the G1/S phase | 100 nM
Combi 11 G(3) (DNA GNGAANGCGNNGAANNANWYSSSNNCAGNCANCAC; gemcitabines, 2'-MOE, 2'-F, BzdU, 3' idT; Combi 11 G(3); (1)..(1) G is 2-Methoxyethyl-DNA.; (2)..(2) n is BzdU.; (3)..(3) G is 2-Methoxyethyl-DNA.; (4)..(4) A is 2-Fluorine-DNA.; (5)..(5) A is 2-Fluorine-DNA.; (6)..(6) n is BzdU.; (10)..(10) n is BzdU.; (11)..(11) n is BzdU.; (12)..(12) G is 2-Fluorine-DNA.; (13)..(13) A is 2-Fluorine-DNA.; (14)..(14) A is 2-Methoxyethyl-DNA.; (15)..(15) n is BzdU.; (16)..(16) n is BzdU.; (17)..(17) A is) | – | – | – | – | – | 200 nM
